According to ChEMBL document CHEMBL1157276, “Halogenated monoterpenes from plocamium costatum and their biological activity1” (1999):

Tests used:
Type in all cases: functional
[1] = tested on: Amphibalanus amphitrite; assay: Antifouling activity against cypris larvae at 1 ug/cm'2
[2] = tested on: Amphibalanus amphitrite; assay: Antifouling activity against cypris larvae at 0.1 ug/cm'2
[3] = tested on: Amphibalanus amphitrite; assay: Antifouling activity against cypris larvae at 10 ug/cm'2
[4] = tested on: Amphibalanus amphitrite; assay: Antifouling activity against cypris larvae at 0.01 ug/cm'2

SMILES | Activity [1] [%] | Activity [2] [%] | Activity [3] [%] | Activity [4] [%]
C[C@](Cl)(/C=C/[C@H](Cl)[C@](C)(Cl)/C=C/Br)C(Br)Br | 37 | 54 | 2.2 | 42
C=CC(C)(O)CCCC(C)CCCC(C)CCCC(C)C (configuration not stated) | 23 | 54 | 13 | 43
C=C(C)C(Cl)C/C=C(\C)C(Cl)CBr (configuration not stated) | 53 | 52 | 58 | 57
